From ChEMBL document CHEMBL1145146, “Synthesis of digalactosyl diacylglycerols and their structure-inhibitory activity on human lanosterol synthase” (Bioorg Med Chem Lett, 2005)

Assays:
[1] = target: T1, Lanosterol synthase (Homo sapiens) (UniProt P48449); assay: Inhibitory activity against lanosteral synthase at 0.25 umol/assay; n.d. = not detected
T1 sequence (whole entry): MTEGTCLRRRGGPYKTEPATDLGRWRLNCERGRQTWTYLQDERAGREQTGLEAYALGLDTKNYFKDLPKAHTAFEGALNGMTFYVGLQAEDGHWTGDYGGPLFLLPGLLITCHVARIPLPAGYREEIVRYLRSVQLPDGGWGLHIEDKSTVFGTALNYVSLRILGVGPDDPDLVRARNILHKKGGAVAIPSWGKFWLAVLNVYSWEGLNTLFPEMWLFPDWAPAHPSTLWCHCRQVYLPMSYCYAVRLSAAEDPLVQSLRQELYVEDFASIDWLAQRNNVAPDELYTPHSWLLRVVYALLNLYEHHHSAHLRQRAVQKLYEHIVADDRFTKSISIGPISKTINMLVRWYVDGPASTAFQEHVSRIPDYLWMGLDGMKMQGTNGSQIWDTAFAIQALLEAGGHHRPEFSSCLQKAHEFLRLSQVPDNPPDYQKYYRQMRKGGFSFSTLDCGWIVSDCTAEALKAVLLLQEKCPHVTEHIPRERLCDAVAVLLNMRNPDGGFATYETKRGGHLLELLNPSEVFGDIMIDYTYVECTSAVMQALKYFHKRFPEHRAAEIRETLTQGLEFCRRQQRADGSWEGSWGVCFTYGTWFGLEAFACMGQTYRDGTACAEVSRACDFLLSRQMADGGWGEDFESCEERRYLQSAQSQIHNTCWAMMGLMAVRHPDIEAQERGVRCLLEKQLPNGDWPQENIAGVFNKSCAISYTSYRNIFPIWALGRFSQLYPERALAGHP

[2] = target: T1, Lanosterol synthase (Homo sapiens); assay: Inhibitory activity against lanosteral synthase at 0.5 umol/assay; design: scale not given: the % may be the effect or the level left
[3] = target: T1, Lanosterol synthase (Homo sapiens); assay: Inhibitory activity against lanosteral synthase at 0.5 umol/assay; n.d. = not detected
[4] = target: T1, Lanosterol synthase (Homo sapiens); assay: Inhibitory activity against lanosteral synthase at 0.25 umol/assay; design: scale not given: the % may be the effect or the level left
[5] = target: T1, Lanosterol synthase (Homo sapiens); assay: Inhibitory activity against lanosteral synthase at 0.4 umol/assay; design: scale not given: the % may be the effect or the level left
Beta-secretase 1 = Beta-secretase 1 (Homo sapiens, UniProt P56817); assay: Binding affinity against human brain memapsin 2; assay type: tissue-based
Chain of Beta-secretase 1 (P56817 whole entry): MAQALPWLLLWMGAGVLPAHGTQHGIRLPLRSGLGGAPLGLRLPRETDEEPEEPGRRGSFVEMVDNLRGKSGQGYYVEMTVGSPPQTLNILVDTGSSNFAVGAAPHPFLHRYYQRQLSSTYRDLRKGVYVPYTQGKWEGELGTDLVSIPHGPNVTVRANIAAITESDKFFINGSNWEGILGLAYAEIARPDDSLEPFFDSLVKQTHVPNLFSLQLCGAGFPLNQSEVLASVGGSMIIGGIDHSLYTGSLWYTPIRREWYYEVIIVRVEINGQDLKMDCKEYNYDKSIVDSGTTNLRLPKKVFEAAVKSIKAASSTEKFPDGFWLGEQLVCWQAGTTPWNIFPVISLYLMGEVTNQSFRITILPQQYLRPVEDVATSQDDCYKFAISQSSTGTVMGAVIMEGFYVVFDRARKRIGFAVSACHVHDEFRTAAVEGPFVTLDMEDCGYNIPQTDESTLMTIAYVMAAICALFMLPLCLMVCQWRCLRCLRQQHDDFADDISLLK

Compound | Activity [2] | Activity [4] | other results
CC/C=C\C/C=C\C/C=C\CCCCCCCC(=O)OCC(CO[C@@H]1O[C@H](CO[C@H]2O[C@H](CO)[C@H](O)C(O)[C@H]2O)[C@H](O)C(O)[C@H]1O)OC(=O)CCCCCCC/C=C\C/C=C\C/C=C\CC (single isomer, unassigned; 2k) | 26% | – | Activity [1]: Not detected
OCC(O)CO[C@@H]1O[C@H](CO[C@H]2O[C@H](CO)[C@H](O)[C@H](O)[C@H]2O)[C@H](O)[C@H](O)[C@H]1O (stereo partly specified) | – | – | Activity [1]: Not detected; Activity [3]: Not detected
CCCCCC/C=C\CCCCCCCC(=O)OCC(CO[C@@H]1O[C@H](CO[C@H]2O[C@H](CO)[C@H](O)[C@H](O)[C@H]2O)[C@H](O)[C@H](O)[C@H]1O)OC(=O)CCCCCCC/C=C/CCCCCCCC (stereo partly specified) | 21% | 4% | –
CC/C=C\C/C=C\C/C=C\CCCCCCCC(=O)OCC(CO[C@@H]1O[C@H](CO[C@H]2O[C@H](CO)[C@H](O)C(O)[C@H]2O)[C@H](O)C(O)[C@H]1O)OC(=O)CCCCCCC/C=C\CCCCCC (single isomer, unassigned; 2l) | 26% | 5% | –
CCCCCC/C=C\CCCCCCCC(=O)OCC(CO[C@@H]1O[C@H](CO[C@H]2O[C@H](CO)[C@H](O)[C@H](O)[C@H]2O)[C@H](O)[C@H](O)[C@H]1O)OC(=O)CCCCCCC/C=C\CCCCCC (stereo partly specified) | 24% | 4% | –
CC/C=C\C/C=C\C/C=C\CCCCCCCC(=O)OC(COC(=O)CCCCCCCCCCCCC)CO[C@@H]1OC(CO)[C@H](O)[C@@H](O)C1O (stereo partly specified) | – | – | Activity [5]: 23%
CC/C=C\C/C=C\C/C=C\CCCCCCCC(=O)OC(COC(=O)CCCCCCC/C=C\CCCCCC)CO[C@@H]1O[C@H](CO[C@H]2O[C@H](CO)[C@H](O)[C@H](O)[C@H]2O)[C@H](O)[C@H](O)[C@H]1O (stereo partly specified) | 20% | – | Activity [1]: Not detected
CC/C=C\C/C=C\C/C=C\CCCCCCCC(=O)OC(COC(=O)CCCCCCC/C=C/CCCCCCCC)CO[C@@H]1O[C@H](CO[C@H]2O[C@H](CO)[C@H](O)C(O)[C@H]2O)[C@H](O)C(O)[C@H]1O (single isomer, unassigned; 2f) | 40% | 9% | –
CC/C=C\C/C=C\C/C=C\CCCCCCCC(=O)OCC(CO[C@@H]1O[C@H](CO[C@H]2O[C@H](CO)[C@H](O)C(O)[C@H]2O)[C@H](O)C(O)[C@H]1O)OC(=O)CCCCCCC/C=C\C/C=C\C/C=C\CC (single isomer, unassigned; 2d) | 45% | 18% | –
CC/C=C\C/C=C\C/C=C\CCCCCCCC(=O)OCC(CO[C@@H]1O[C@H](CO)[C@H](O)C(O)[C@H]1O)OC(=O)CCCCCCC/C=C\CCCCCCCC (single isomer, unassigned) | – | – | Activity [5]: 19%
CC/C=C\C/C=C\C/C=C\CCCCCCCC(=O)OCC(CO[C@@H]1O[C@H](CO[C@H]2O[C@H](CO)[C@H](O)C(O)[C@H]2O)[C@H](O)C(O)[C@H]1O)OC(=O)CCCCCCC/C=C/CCCCCCCC (single isomer, unassigned) | 31% | 8% | –
CCCCCC/C=C\CCCCCCCC(=O)OC(COC(=O)CCCCCCCCCCCCC)CO[C@@H]1OC(CO[C@H]2OC(CO)[C@H](O)[C@@H](O)C2O)[C@H](O)[C@@H](O)C1O (stereo partly specified) | 45% | 35% | –
CC/C=C\C/C=C\C/C=C\CCCCCCCC(=O)OCC(CO[C@@H]1OC(CO[C@H]2OC(CO)[C@H](O)[C@@H](O)C2O)[C@H](O)[C@@H](O)C1O)OC(=O)CCCCCCCCCCCCC (stereo partly specified) | 38% | 22% | –
CC/C=C\C/C=C\C/C=C\CCCCCCCC(=O)OC(COC(=O)CCCCCCC/C=C/CCCCCCCC)CO[C@@H]1O[C@H](CO[C@H]2O[C@H](CO)[C@H](O)C(O)[C@H]2O)[C@H](O)C(O)[C@H]1O (single isomer, unassigned; 2i) | 29% | 7% | –
CC/C=C\C/C=C\C/C=C\CCCCCCCC(=O)OCC(CO[C@@H]1O[C@H](CO[C@H]2O[C@H](CO)[C@H](O)C(O)[C@H]2O)[C@H](O)C(O)[C@H]1O)OC(=O)CCCCCCC/C=C\CCCCCC (single isomer, unassigned; 2j) | 27% | 3% | –
C=CCNC(=O)C[C@H](NC(=O)C(NC(=O)OCC=C)C(C)C)C(=O)N[C@@H](CC(C)C)[C@@H](O)C[C@@H](C)C(=O)N[C@H](C(=O)NCc1ccccc1)C(C)C (stereo partly specified) | – | – | Ki (Beta-secretase 1): 26.6 nM
CCCCCC/C=C/CCCCCCCC(=O)OC(COC(=O)CCCCCCC/C=C/CCCCCCCC)CO[C@@H]1O[C@H](COC2O[C@H](CO)[C@H](O)C(O)[C@H]2O)[C@H](O)C(O)[C@H]1O (single isomer, unassigned) | 46% | 24% | –
CC/C=C\C/C=C\C/C=C\CCCCCCCC(=O)OC(COC(=O)CCCCCCC/C=C\CCCCCC)CO[C@@H]1O[C@H](CO)[C@H](O)C(O)[C@H]1O (single isomer, unassigned) | – | – | Activity [5]: 16%
CCCCCCCCCCCCCC(=O)OCC(CO[C@@H]1O[C@H](CO[C@H]2O[C@H](CO)[C@H](O)C(O)[C@H]2O)[C@H](O)C(O)[C@H]1O)OC(=O)CCCCCCCCCCCCC (single isomer, unassigned) | 72% | 51% | –
CCCCCCCC/C=C/CCCCCCCC(=O)OCC(CO[C@@H]1O[C@H](CO[C@H]2O[C@H](CO)[C@H](O)C(O)[C@H]2O)[C@H](O)C(O)[C@H]1O)OC(=O)CCCCCCC/C=C/CCCCCCCC (single isomer, unassigned) | 57% | 42% | –
